The results in this text go back to patent publication EP1192125B9, “MONO-SUBSTITUTED 3-PROPYL GAMMA-AM[…]” (Warner-Lambert Company LLC, priority 1999, dated 2000).

Common to all, as to assay type: in vivo
One assay concerns DBA/2 mice. Kind of assay: DBA2 mouse model of anticonvulsant efficacy (sound-induced seizures). Conditions: for responders at 30 mg/kg: Mus musculus; for Anticonvulsant % Protect 2 br / Anticonvulsant % Protect 1hr: Table 1. More on the design: Anticonvulsant % Protect 2 br / Anticonvulsant % Protect 1hr: concentration or dose not given beside the values.
Assay [1] can be described thus: Anxiolytic activity relative to pregabalin (test model not specified). Conditions: 30 mg/kg PO; percent of pregabalin activity.
Another assay deals with Male Sprague-Dawley rats. Description: Carrageenin-induced hyperalgesia, rat paw pressure test. Particulars: dosed orally at 30 mg/kg.
Where [2] appears, read: 30 mg/kg PO, 1h, read-out: Anticonvulsant % Protect* 1h.
The mark [3] stands for this setting: 30 mg/kg PO, 2h, read-out: Anticonvulsant % Protect* 2h.

Where two headings read alike, the source gives them in different places.

Procedure for Male Sprague-Dawley rats: Male Sprague-Dawley rats (70-90 g) were trained on this apparatus before the test day. Pressure was gradually applied to the hind paw of each rat and nociceptive thresholds were determined as the pressure (g) required to elicit paw withdrawal. […] On the test day, two to three baseline measurements were taken before animals were administered 100 µL of 2% carrageenin by intraplantar injection into the right hind paw.

For the compound `CCCC[C@H](C)C[C@H](CN)CC(=O)O` [(3S, 5S)-3-Aminomethyl-5-methyl-nonanoic acid], the responders at 30 mg/kg in the assay with DBA/2 mice (setting [2]) and in the assay on DBA/2 mice (setting [3]) was 0% in each case.

As for `CCC[C@H](C)C[C@H](CN)CC(=O)O` [(3S,5S)-3-Aminomethyl-5-methyl-octanoic acid], the responders at 30 mg/kg with DBA/2 mice (setting [2]) came to 0%; in the assay with DBA/2 mice (setting [3]) it was 20%. Moreover, the “Anxiolytic Activity* % Preg. Act.” value in assay [1] worked out at 15.6%.

Turning to `CCCC(C)C[C@H](CN)CC(=O)O` (stereo partly drawn) [(S)-3-Aminomethyl-5-methyl-octanoic acid], the responders at 30 mg/kg in the assay on DBA/2 mice (setting [2]) and in the assay with DBA/2 mice (setting [3]) was 100% throughout. Moreover, the “Anxiolytic Activity* % Preg. Act.” value in assay [1] amounted to 135.38%.

On to `CC(CC(CN)CC(=O)O)C(F)(F)F` (stereo not drawn) [3-Aminomethyl-6,6,6-trifluoro-5-methyl-hexanoic acid], for which the responders at 30 mg/kg in the assay on DBA/2 mice (setting [2]) and in the assay with DBA/2 mice (setting [3]) was 0% throughout.

For the compound `CCCCC[C@H](C)C[C@H](CN)CC(=O)O` [(3S,5S)-3-Aminomethyl-5-methyl-decanoic acid], the responders at 30 mg/kg is 0% with DBA/2 mice (setting [2]) and 20% in the assay on DBA/2 mice (setting [3]).

As for `COCC(C)C[C@H](CN)CC(=O)O` (stereo partly drawn) [(S)-3-Aminomethyl-6-methoxy-5-methyl-hexanoic acid], the responders at 30 mg/kg in the assay on DBA/2 mice (setting [2]) and in the assay on DBA/2 mice (setting [3]) was 0% in each case.

On to `CC[C@@H](C)[C@H](CN)CC(=O)O`, for which, in the assay on DBA/2 mice, the “Anticonvulsant % Protect 2 br” value came to 0% and the “Anticonvulsant % Protect 1hr” value is listed as 0%.

For the compound `C=CCC(C)CC(CN)CC(=O)O` (stereo not drawn) [3-Aminomethyl-5-methyl-oct-7-enoic acid], the responders at 30 mg/kg with DBA/2 mice (setting [2]) and in the assay with DBA/2 mice (setting [3]) was 0% in each case.

As to `CCC(C)CC(CN)CC(=O)O` (racemic) [3-Aminomethyl-5-methylheptanoic acid], the figures for the responders at 30 mg/kg in the assay on DBA/2 mice (setting [2]) and with DBA/2 mice (setting [3]) were 60% and 100%, respectively. The “Anxiolytic Activity* % Preg. Act.” value in assay [1] worked out at 79%.

Consider `CCC(CC)CC(CN)CC(=O)O` (stereo not drawn), for which, in the assay with DBA/2 mice, the “Anticonvulsant % Protect 2 br” value is reported as 20% and the “Anticonvulsant % Protect 1hr” value is 0%.

With `CCCC(C)CC(CN)CC(=O)O` (stereo not drawn) [3-Aminomethyl-5-methyloctanoic acid, 3-Aminomethyl-5-methyl-octanoic acid], the responders at 30 mg/kg in the assay with DBA/2 mice (setting [2]) was 40%; in the assay on DBA/2 mice (setting [3]), 100%.

`Cl.O=C(O)[C@H]1CNCC12CCCCC2` [(R)-2-Aza-spiro[4.5]decane-4-carboxylic acid hydrochloride]: the “percent of maximum possible effect (MPE)” value was 53% in the assay with Male Sprague-Dawley rats (1 hour postdose) and 4.6% with Male Sprague-Dawley rats (2 hours postdose).

In the case of `CCCCC(C(C)C)C(CN)CC(=O)O` (stereo not drawn) [3-aminomethyl-4-isopropyl-octanoic acid, 3-Aminomethyl-4-isopropyl-octanoic acid], the responders at 30 mg/kg with DBA/2 mice (setting [2]) and with DBA/2 mice (setting [3]) was 0% in each case.

As to `CCC(C(C)C)C(CN)CC(=O)O` (stereo not drawn) [3-aminomethyl-4-isopropyl-hexanoic acid, 3-Aminomethyl-4-isopropyl-hexanoic acid], the responders at 30 mg/kg with DBA/2 mice (setting [2]) and with DBA/2 mice (setting [3]) was 0% in each case.

Turning to `CC[C@@H](C)C[C@H](CN)CC(=O)O` [(3S,5R)-3-Aminomethyl-5-methyl-heptanoic acid], the “Anticonvulsant % Protect* 2h” value with DBA/2 mice (30 mg/kg PO, 2h) is on record as 100%.

Consider `CC(C)[C@H](C)[C@H](CN)CC(=O)O` [(3R,4S)-3-Aminomethyl-4,5-dimethyl-hexanoic acid], for which the “Anxiolytic Activity* % Preg. Act.” value in assay [1] is 58%.

`CC(C)[C@@H](C)[C@H](CN)CC(=O)O` [(3R,4R)-3-Aminomethyl-4,5-dimethyl-hexanoic acid]: the “Anxiolytic Activity* % Preg. Act.” value in assay [1] was found to be 204%.

For `CC(C)[C@@H](C)[C@@H](CN)CC(=O)O` [(3S,4R)3-Aminomethyl-4,5-dimethyl-hexanoic acid], the “Anticonvulsant % Protect* 1h” value in the assay with DBA/2 mice (30 mg/kg PO, 1h) stood at 20%. The “Anticonvulsant % Protect* 2h” value with DBA/2 mice (30 mg/kg PO, 2h) turned out to be 20%. The “Anxiolytic Activity* % Preg. Act.” value in assay [1] is 12%.

Take `CC(C)CC(CN)CC(=O)O` (stereo not drawn) [reference compound]: the “Anticonvulsant % Protect 2 br” value in the assay on DBA/2 mice is given as 100%.

For the compound `CCCCC[C@@H](C)C[C@H](CN)CC(=O)O` [(3S,5R)-3-Aminomethyl-5-methyl-decanoic acid], the responders at 30 mg/kg in the assay on DBA/2 mice (setting [2]) and in the assay on DBA/2 mice (setting [3]) was 100% throughout. Moreover, in assay [1], the “Anxiolytic Activity* % Preg. Act.” value is reported as 105.59%.

Regarding `CCC[C@@H](C)C[C@H](CN)CC(=O)O.Cl` [(3S,5R)-3-Aminomethyl-5-methyl-octanoic acid hydrochloride], the responders at 30 mg/kg in the assay with DBA/2 mice (setting [2]) and with DBA/2 mice (setting [3]) was 100% each time. Also, the “Anxiolytic Activity* % Preg. Act.” value in assay [1] is reported as 160%.

With `CC(C)C(c1ccccc1)C(CN)CC(=O)O` (stereo not drawn) [3-Aminomethyl-5-methyl-4-phenyl-hexanoic acid], the responders at 30 mg/kg with DBA/2 mice (setting [2]) and with DBA/2 mice (setting [3]) was 0% throughout.

Turning to `CCCC[C@@H](C)C[C@H](CN)CC(=O)O.Cl` [(3S,5R)-3-Aminomethyl-5-methyl-nonanoic acid hydrochloride], the responders at 30 mg/kg in the assay on DBA/2 mice (setting [2]) and in the assay on DBA/2 mice (setting [3]) was 100% throughout. Moreover, in assay [1], the “Anxiolytic Activity* % Preg. Act.” value is 125.94%.

Regarding `CCCCC(C)CC(CN)CC(=O)O` (stereo not drawn) [3-Aminomethyl-5-methylnonanoic acid, 3-Aminomethyl-5-methyl-nonanoic acid], the responders at 30 mg/kg in the assay with DBA/2 mice (setting [2]) was 40%; in the assay with DBA/2 mice (setting [3]), 80%.

As for `CCC(C)CC(CN)CC(=O)O` (stereo not drawn), in the assay on DBA/2 mice, the “Anticonvulsant % Protect 2 br” value stood at 100% and the “Anticonvulsant % Protect 1hr” value stood at 60%.

For `CC(Cc1ccccc1)CC(CN)CC(=O)O` (stereo not drawn) [3-Aminomethyl-5-methyl-6-phenyl-hexanoic acid], the responders at 30 mg/kg with DBA/2 mice (setting [2]) and in the assay with DBA/2 mice (setting [3]) was 0% each time.

With `CCCCCC(C)CC(CN)CC(=O)O` (stereo not drawn) [3-Aminomethyl-5-methyldecanoic acid, 3-Aminomethyl-5-methyl-decanoic acid], the responders at 30 mg/kg with DBA/2 mice (setting [2]) and with DBA/2 mice (setting [3]) was 0% in each case.

As for `CC(C)[C@@H](C)C(CN)CC(=O)O` (stereo partly drawn), in the assay on DBA/2 mice, the “Anticonvulsant % Protect 2 br” value is 100% and the “Anticonvulsant % Protect 1hr” value is listed as 80%.

With `CCC(CC)C(CN)CC(=O)O` (stereo not drawn), in the assay on DBA/2 mice, the “Anticonvulsant % Protect 2 br” value worked out at 20% and the “Anticonvulsant % Protect 1hr” value is given as 0%.

For the compound `CC(C)C[C@H](CN)CC(=O)O` [Pregabalin, (S)-3-(Aminomethyl)-5-methylhexanoic acid, reference compound], the responders at 30 mg/kg in the assay on DBA/2 mice (setting [3]) came to 100%. Further, the “Anxiolytic Activity* % Preg. Act.” value in assay [1] was found to be 100%.
